The text below walks through data of patent US12410152B2, “Oxazole and thioazole-type cullin ring ubiquitin ligase compounds and uses thereof” (Proxygen GmbH, priority 2019, dated 2025).

In data set [1] the test system is KBM7 CUL4Bmut cells. Put plainly: cells. Format: cell-based. On the procedure: (§1) KBM7 cells with the specified genetic backgrounds were grown in IMDM supplemented with 10% FBS and 1% penicillin/streptomycin (pen/strep). AsPC1, HCT116, NCI-H446 and 293T cells were grown in DMEM 10% FBS and 1% pen/strep. MV4; 11, Jurkat and Be (2) C cells were grown in RPMI 10% FBS 1% pen/strep. KBM7, AsPC1 and HCT116 cells expressing Cas9 were generated using the plasmid Lenti_Cas9_Blasti (Addgene #52962). The lentiviral plasmid lentiGuide-Puro (Addgene #52963) was used to express sgRNAs against the genes UBE2M (in KBM7-Cas9, AsPC1-Cas9 and HCT116-Cas9 cells), UBE2G1 (in KBM7-Cas9 cells) and […] (in KBM7-Cas9 cells). The lentiviral plasmid lentiGuide-Puro-IRES-mCherry (modified from Addgene #52963) was used to express sgRNAs against CUL4A (in KBM7-Cas9 cells). The lentiviral plasmid pLenti-PGK-Hygro-DEST-UBE2M was generated by Gateway cloning (empty destination vector Addgene #19066), and used to generate UBE2M^resc KBM7 cells. […]
(§2) Finally, a total of structurally similar analogs was tested to unravel structure-activity relationship of the identified molecules. To that end, their anti-cancer activity was assayed in WT cells, as well as KBM7 cells deficient in genes identified in the genome-wide CRISPR screens (UBE2M, CUL4B, UBE2G1). Moreover, the compounds were also tested in AsPC1 pancreatic cancer cells (WT or UBE2Mmut), MV4; 11 and Jurkat leukemia cells, Be (2) C neuroblastoma cells, and NCI-H446 lung cancer cells (Table 3 at the end of this document)
(§3) KBM7^WT, mutant KBM7 clones (UBE2M^mut, UBE2M^resc, UBE2G1^mut CUL4A^mut, CUL4B^mut), and 3-day doxycycline pretreated KBM7^iCas9_sgDDB1 cells were seeded at a cell density of 50,000 cells/mL in 96-well plates with DMSO or drug, in triplicates. Drugs used: IC020772.1/IC020772.1X, IC021313.2/IC021313.2X, T6938051/T6938051X or THZ531. Cells were treated for 3 days, after which cell viability was assessed according to manufacturer's protocol (CellTiter Glo, Promega G7570). Survival curves and EC50 values were calculated by best-fit analysis of the log 10 drug concentration to fold change of drug-treated cells over DMSO-treated cells. All survival assays included technical triplicates per sample, per experiment.

Data set [2] deals with KBM7 UBE2G1mut cells. Put plainly: cells. Format: cell-based. On the procedure:
as §1, §2, §3

In data set [3] the test system is UBE2Mresc KBM7 cells. Put plainly: Cell viability assay, KBM7 UBE2M rescue (UBE2M cDNA re-introduced). Format: cell-based, human. The settings on record: Table 1, data of FIG. 4; 3-day treatment; read-out: LC50 UBE2Mresc. On the procedure:
KBM7 cells with the specified genetic backgrounds were grown in IMDM supplemented with 10% FBS and 1% penicillin/streptomycin (pen/strep). AsPC1, HCT116, NCI-H446 and 293T cells were grown in DMEM 10% FBS and 1% pen/strep. MV4; 11, Jurkat and Be (2) C cells were grown in RPMI 10% FBS 1% pen/strep. KBM7, AsPC1 and HCT116 cells expressing Cas9 were generated using the plasmid Lenti_Cas9_Blasti (Addgene #52962). The lentiviral plasmid lentiGuide-Puro (Addgene #52963) was used to express sgRNAs against the genes UBE2M (in KBM7-Cas9, AsPC1-Cas9 and HCT116-Cas9 cells), UBE2G1 (in KBM7-Cas9 cells) and […] (in KBM7-Cas9 cells). The lentiviral plasmid lentiGuide-Puro-IRES-mCherry (modified from Addgene #52963) was used to express sgRNAs against CUL4A (in KBM7-Cas9 cells). The lentiviral plasmid pLenti-PGK-Hygro-DEST-UBE2M was generated by Gateway cloning (empty destination vector Addgene #19066), and used to generate UBE2M^resc KBM7 cells.
Indeed, >20 compounds were identified that fulfilled this criteria. […] The initial screening assay was conducted at two concentrations (10 μM and 500 nM). The dose ranging differential effect of these four hits was assessed/validated, comparing their activity in KBM7WT vs UBE2MMUT cells. […] A genetic rescue experiment, where UBE2M cDNA was re-introduced into the UBE2Mmut clone (UBE2Mresc), did (at least partically) reconstitute the initial sensitivity to the assessed compounds (FIG. 4, Table 1).
as §3, with “All survival assays included technical triplicates per sample, per experiment.” left out

As for `Cc1ccc(C(=O)N2CSCC2C(=O)N=c2[nH]cc(C)s2)o1` (stereo not drawn) [Compound T6938051], the values for the CC50 in data set [1], in data set [2] and in data set [3] were 110 µM, 3.47 µM and 1.15 µM, respectively.
In the same order, the values of `O=C(CSc1nnc2c(n1)[nH]c1ccccc12)Nc1ccc(Cl)cn1` [IC020772.1] are 7.53 µM, 2 µM and 0.75 µM.
With `O=C(CSc1nc2ccccc2[nH]1)Nc1ccc(Cl)cn1` [IC021313.2], the CC50 stood at 15.7 µM in data set [1], 4.34 µM in data set [2] and 1.94 µM in data set [3].
